Read-outs that look alike come from different tables or passages of the source. Starred links: 1 amine or outer side, 2 acyl side, 3 side chain; linkers in the order of their positions; H or OH if unused. Non-standard residues stand in square brackets, D forms with d. Residues, ends and D or L forms follow the SMILES beside them. Groups on a side chain read outwards from the residue. No end group written: not given here. *: point of attachment. C20 diacid = O=C(O)CCCCCCCCCCCCCCCCCCC(=O)*; C18 diacid = O=C(O)CCCCCCCCCCCCCCCCC(=O)*; αMePhe(2-F) = C[C@](N)(Cc1ccccc1F)C(=O)O; γGlu = O=C(O)[C@H](CCC(=O)[*:2])N[*:1]; αMe4Pal = C[C@](N)(Cc1ccncc1)C(=O)O; αMeY = C[C@](N)(Cc1ccc(O)cc1)C(=O)O; Hyp = O=C(O)[C@@H]1C[C@@H](O)CN1; 4Pal = N[C@@H](Cc1ccncc1)C(=O)O; αMeL = CC(C)C[C@](C)(N)C(=O)O; αMeS = C[C@](N)(CO)C(=O)O; Orn = NCCC[C@H](N)C(=O)O; AEEA = NCCOCCOCC(=O)O; Aib = CC(C)(N)C(=O)O
How the values were obtained:
Assay type in all cases: cell-based
[1] = target: human GcgR (Homo sapiens, UniProt P47871); test: Functional cAMP activity in the presence of 1% HSA; settings: read-out: cAMP Rel EC50, hGcgR
Chain of human GcgR (P47871 26-477): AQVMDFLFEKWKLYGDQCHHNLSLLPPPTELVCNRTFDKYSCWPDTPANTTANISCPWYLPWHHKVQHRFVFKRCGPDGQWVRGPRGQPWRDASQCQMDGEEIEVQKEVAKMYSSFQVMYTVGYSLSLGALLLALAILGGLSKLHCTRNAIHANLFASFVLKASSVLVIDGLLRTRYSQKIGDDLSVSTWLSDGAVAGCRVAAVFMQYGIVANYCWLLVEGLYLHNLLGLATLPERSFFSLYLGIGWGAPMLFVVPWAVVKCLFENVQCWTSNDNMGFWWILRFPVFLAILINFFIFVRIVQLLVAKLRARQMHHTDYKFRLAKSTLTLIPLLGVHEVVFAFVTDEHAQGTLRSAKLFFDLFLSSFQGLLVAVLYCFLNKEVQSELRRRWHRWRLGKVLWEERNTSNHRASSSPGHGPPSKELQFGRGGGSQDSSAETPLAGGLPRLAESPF

[2] = target: T1, hGIPR (Homo sapiens, UniProt P48546); test: Functional cAMP activity in the presence of 1% HSA; settings: read-out: cAMP Rel EC50, hGIPR
T1 sequence (P48546 22-466): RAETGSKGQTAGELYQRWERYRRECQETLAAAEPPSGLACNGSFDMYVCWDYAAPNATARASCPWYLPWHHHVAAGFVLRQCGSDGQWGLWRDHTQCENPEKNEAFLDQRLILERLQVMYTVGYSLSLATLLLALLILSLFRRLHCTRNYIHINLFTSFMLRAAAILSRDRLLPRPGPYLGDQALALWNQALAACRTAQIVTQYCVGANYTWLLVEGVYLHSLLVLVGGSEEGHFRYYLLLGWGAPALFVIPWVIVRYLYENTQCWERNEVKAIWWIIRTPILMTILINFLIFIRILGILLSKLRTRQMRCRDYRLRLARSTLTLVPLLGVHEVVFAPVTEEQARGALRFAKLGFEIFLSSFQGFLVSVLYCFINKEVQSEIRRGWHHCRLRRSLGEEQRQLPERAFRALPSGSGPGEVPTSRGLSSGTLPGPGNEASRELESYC

[3] = target: hGcgR (Homo sapiens, UniProt P47871); test: Functional cAMP activation in the presence of 0.1% casein (no HSA); settings: read-out: Relative cAMP EC50, hGcgR;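 also: intracellular cAMP rise after 30 min at 37 °C, read by HTRF against a cAMP standard curve, scaled from buffer only (0%) to maximal control ligand response (100%)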
Chain of hGcgR (P47871 26-477): as the sequence (P47871 26-477) above

[4] = target: T2, hGLP-1R (Homo sapiens, UniProt P43220); test: as above; settings: read-out: Relative cAMP EC50, hGLP-1R;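 also: intracellular cAMP rise after 30 min at 37 °C read by HTRF, normalized between buffer only (0%) and maximal control ligand (100%), four-parameter variable-slope fit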
T2 sequence (P43220 24-463): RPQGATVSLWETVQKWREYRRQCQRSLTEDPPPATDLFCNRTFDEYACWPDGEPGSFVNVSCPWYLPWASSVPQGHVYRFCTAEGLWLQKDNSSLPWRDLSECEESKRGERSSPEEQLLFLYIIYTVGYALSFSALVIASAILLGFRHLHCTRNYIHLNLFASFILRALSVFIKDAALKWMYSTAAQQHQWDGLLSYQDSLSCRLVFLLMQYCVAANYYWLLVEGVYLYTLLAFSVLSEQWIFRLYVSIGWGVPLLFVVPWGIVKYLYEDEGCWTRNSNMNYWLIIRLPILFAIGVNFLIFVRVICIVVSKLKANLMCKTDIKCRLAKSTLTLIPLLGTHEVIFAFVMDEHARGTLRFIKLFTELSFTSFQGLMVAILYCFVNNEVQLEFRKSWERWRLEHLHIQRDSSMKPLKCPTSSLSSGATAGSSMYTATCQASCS

[5] = target: T1, hGIPR; test: as above; settings: read-out: Relative cAMP EC50, hGIPR
[6] = target: T2, hGLP-1R; test: Functional cAMP activity in the presence of 1% HSA; settings: read-out: cAMP Rel EC50, hGLP-1R
[7] = in the presence of 0.1% casein (no HSA), geometric mean
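For Relative cAMP EC50, hGIPR in this document: intracellular cAMP rise after 30 min at 37 °C read by HTRF against a standard curve, scaled between buffer alone (0%) and top control ligand concentration (100%), four-parameter fit.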

Row | EC50 [3] | EC50 [4] | EC50 [5] | Compound | EC50 [1] | EC50 [2] | EC50 [6] | EC50 [3, 7] | EC50 [4, 7] | EC50 [5, 7]
1 | 5.04 nM | 0.499 nM | 0.235 nM | H-Y[Aib]QGT[αMePhe(2-F)]TSD[4Pal][αMeS]ILLD[Orn]K([γGlu-γGlu-C18 diacid])AQ[Aib][Orn]FI[dE][αMeY]LQEGGPSSGEPPPEGAEE-NH2 [Example 574] | 435 nM | 20.5 nM | 37.2 nM |  |  | 
2 | 1.71 nM | 0.235 nM | 0.0109 nM | H-Y[Aib]QGT[αMePhe(2-F)]TSD[4Pal][αMeS]I[αMeL]LD[Orn]K([AEEA-γGlu-C18 diacid])AQ[Aib][Orn]FI[dE][αMeY]LIEGGPSSGEPPPEGTGE-NH2 [Example 697] | 130 nM | 0.607 nM | 18.2 nM |  |  | 
3 |  |  |  | Y[Aib]QGTFTSD[4Pal]SQ[αMeL]LDKK([dE-γGlu-dE-C18 diacid])AQ[αMe4Pal]AFIEYLIE[Aib]GPSSGAPPPSGSEE-NH2 [Example 931] | 2300 nM | 20.8 nM | 878 nM | 12.2 nM | 11.3 nM | 0.256 nM
4 |  |  |  | H-Y[Aib]QGTFTSDFS[Orn][αMeL]LDKK([AEEA-γGlu-C20 diacid])AQ[Aib]AFIEYLLAGGPSSGAPPPSGSE-NH2 [Example 84] | 2280 nM | 57.4 nM | 701 nM | 8.48 nM | 1.61 nM | 0.21 nM
5 |  |  |  | H-Y[Aib]QGTFTSDFS[Orn][αMeL]LDKK([AEEA-γGlu-C20 diacid])AQ[Aib]AFIEWLLEGGPSSGAPPPEGE-NH2 [Example 101] | 2810 nM | 133 nM | 1090 nM | 10 nM | 4.3 nM | 0.436 nM
6 |  |  |  | H-Y[Aib]QGTFTSDYSK[αMeL]LDKK([AEEA-γGlu-C20 diacid])AQ[Aib]AFVQWLLEGGPSSGEPPPSEG-NH2 [Example 343] | 475 nM | 16.7 nM | 178 nM | 6.83 nM | 1.31 nM | 0.184 nM
7 |  |  |  | H-Y[Aib]QGTFTSD[4Pal]SQ[αMeL]LD[Orn]K([AEEA-γGlu-C18 diacid])AQ[Aib]AFIE[αMeY]LLEGGPSSGAPPPSGS-NH2 [Example 911] | 2390 nM | 26.6 nM | 255 nM | 9.53 nM | 1.09 nM | 0.197 nM
8 |  |  |  | CC[C@H](C)[C@H](NC(=O)[C@H](Cc1ccccc1)NC(=O)[C@H](CCCN)NC(=O)C(C)(C)NC(=O)[C@H](CCC(N)=O)NC(=O)[C@H](C)NC(=O)[C@H](CCCCNC(=O)CC[C@H](NC(=O)CC[C@H](NC(=O)CCCCCCCCCCCCCCCCC(=O)O)C(=O)O)C(=O)O)NC(=O)[C@H](CCCN)NC(=O)[C@H](CC(=O)O)NC(=O)[C@H](CC(C)C)NC(=O)[C@](C)(CC(C)C)NC(=O)[C@@H](NC(=O)[C@H](CO)NC(=O)[C@H](Cc1ccncc1)NC(=O)[C@H](CC(=O)O)NC(=O)[C@H](CO)NC(=O)[C@@H](NC(=O)[C@](C)(Cc1ccccc1F)NC(=O)[C@@H](NC(=O)CNC(=O)[C@H](CCC(N)=O)NC(=O)C(C)(C)NC(=O)[C@@H](N)Cc1ccc(O)cc1)[C@@H](C)O)[C@@H](C)O)[C@@H](C)CC)C(=O)N[C@H](CCC(=O)O)C(=O)N[C@@](C)(Cc1ccc(O)cc1)C(=O)N[C@@H](CC(C)C)C(=O)N[C@@H](CC(C)C)C(=O)N[C@@H](CCC(=O)O)C(=O)NCC(=O)NCC(=O)N1CCC[C@H]1C(=O)N[C@@H](CO)C(=O)N[C@@H](CO)C(=O)NCC(=O)N[C@@H](CCC(=O)O)C(=O)N1CCC[C@H]1C(=O)N1CCC[C@H]1C(=O)N1CCC[C@H]1C(=O)N[C@@H](CO)C(N)=O [Example 371] | 463 nM | 1.47 nM | 47.4 nM | 4.46 nM | 0.327 nM | 0.0128 nM
9 | 4.84 nM | 0.43 nM | 0.0448 nM | CC[C@H](C)[C@H](NC(=O)[C@H](Cc1ccccc1)NC(=O)[C@H](CC(N)=O)NC(=O)C(C)(C)NC(=O)[C@H](CCC(N)=O)NC(=O)[C@H](C)NC(=O)[C@H](CCCCNC(=O)CC[C@H](NC(=O)CC[C@H](NC(=O)CCCCCCCCCCCCCCCCC(=O)O)C(=O)O)C(=O)O)NC(=O)[C@H](CCCN)NC(=O)[C@H](CC(=O)O)NC(=O)[C@H](CC(C)C)NC(=O)[C@](C)(CC(C)C)NC(=O)[C@@H](NC(=O)[C@](C)(CO)NC(=O)[C@H](Cc1ccncc1)NC(=O)[C@H](CC(=O)O)NC(=O)[C@H](CO)NC(=O)[C@@H](NC(=O)[C@](C)(Cc1ccccc1F)NC(=O)[C@@H](NC(=O)CNC(=O)[C@H](CCC(N)=O)NC(=O)C(C)(C)NC(=O)[C@@H](N)Cc1ccc(O)cc1)[C@@H](C)O)[C@@H](C)O)[C@@H](C)CC)C(=O)N[C@H](CCC(=O)O)C(=O)N[C@@](C)(Cc1ccc(O)cc1)C(=O)N[C@@H](CC(C)C)C(=O)N[C@@H](CCC(N)=O)C(=O)N[C@@H](CCC(=O)O)C(=O)NCC(=O)NCC(=O)N1CCC[C@H]1C(=O)N[C@@H](CO)C(=O)N[C@@H](CO)C(=O)NCC(=O)N[C@@H](CCC(=O)O)C(=O)N1CCC[C@H]1C(=O)N1CCC[C@H]1C(=O)N1CCC[C@H]1C(=O)N[C@@H](CCC(=O)O)C(N)=O [Example 450] (H-Y[Aib]QGT[αMePhe(2-F)]TSD[4Pal][αMeS]I[αMeL]LD[Orn]K([γGlu-γGlu-C18 diacid])AQ[Aib]NFI[dE][αMeY]LQEGGPSSGEPPPE-NH2) | 553 nM | 3.75 nM | 18.4 nM |  |  | 
10 |  |  |  | H-Y[Aib]QGTFTSD[4Pal]SQ[αMeL]LDKK([γGlu-γGlu-C18 diacid])AQ[αMe4Pal]AFIEWLIEGGPSSGAPPPSGS-NH2 [Example 872] | 1890 nM | 30.1 nM | 287 nM | 4.18 nM | 1.01 nM | 0.205 nM
11 | 2.32 nM | 0.236 nM | 0.00959 nM | Y[Aib]QGT[αMePhe(2-F)]TSD[4Pal]SI[αMeL]LD[Orn]K([AEEA-γGlu-C18 diacid])AQ[αMe4Pal][Orn]FI[dE][αMeY]LIEGGPSSGEPPPEGGGE-NH2 [Example 757] | 310 nM | 1.81 nM | 30.8 nM |  |  | 
12 | 1.59 nM | 0.395 nM | 0.00722 nM | H-Y[Aib]QGT[αMePhe(2-F)]TSD[4Pal][αMeS]I[αMeL]LD[Orn]K([AEEA-γGlu-C18 diacid])AQ[αMe4Pal]EFI[dE][αMeY]LIEGGPSSGEPPPEGGGE-NH2 [Example 760] | 239 nM | 1.29 nM | 43.6 nM |  |  | 
13 |  |  |  | H-Y[Aib]QGTFTSDFS[Orn][αMeL]LDKK([AEEA-γGlu-C18 diacid])AQ[Aib]AFIEYLLEGGPSSGAP[Hyp]PGGS-NH2 [Example 236] | 309 nM | 24.8 nM | 261 nM | 2.23 nM | 3.33 nM | 0.309 nM
14 |  |  |  | H-Y[Aib]QGTFTSDFS[Orn][αMeL]LDKK([AEEA-γGlu-C18 diacid])AQ[Aib]QFIEYLLAGGPSSGAPPPEGS-NH2 [Example 96] | 2150 nM | 49.3 nM | 836 nM | 14.1 nM | 3.92 nM | 0.456 nM
15 |  |  |  | H-Y[Aib]QGTFTSD[4Pal]SQ[αMeL]LDKK([AEEA-AEEA-γGlu-C18 diacid])AQ[αMe4Pal]AFIEYLIE[Aib]GPSSGAPPPSGS-NH2 [Example 816] | 1100 nM | 15.9 nM | 310 nM | 6.57 nM | 2.69 nM | 0.297 nM
16 | 4.34 nM | 0.89 nM | 0.105 nM | H-Y[Aib]QGT[αMePhe(2-F)]TSD[4Pal][αMeS]I[αMeL]LD[Orn]K([γGlu-γGlu-C18 diacid])AQ[Aib][Orn]FI[dE][αMeY]LAEGGPSSGEPPPSGGEE-NH2 [Example 590] | 309 nM | 4.25 nM | 58.7 nM |  |  | 
17 | 1.41 nM | 0.177 nM | 0.0139 nM | H-Y[Aib]QGT[αMePhe(2-F)]TSD[4Pal][αMeS]I[αMeL]LD[Orn]K([AEEA-γGlu-C18 diacid])AQ[Aib]NFIEYLIEGGPSSGEPPPEEG-NH2 [Example 482] | 325 nM | 1.58 nM | 14.9 nM |  |  | 
18 |  |  |  | H-Y[Aib]QGT[αMePhe(2-F)]TSDYSILLDKQAQK([AEEA-AEEA-γGlu-C20 diacid])AFIEYLLEGGPSSGEPPPSEG-NH2 [Example 345] | 3300 nM | 15.3 nM | 256 nM | 11.3 nM | 0.658 nM | 0.0377 nM

Row | Compound | EC50 [3] | EC50 [4] | EC50 [5] | EC50 [1] | EC50 [2] | EC50 [6] | EC50 [3, 7] | EC50 [4, 7] | EC50 [5, 7]
19 | H-Y[Aib]QGT[αMePhe(2-F)]TSDYSILLDKK([AEEA-γGlu-C18 diacid])AQ[Aib]AFIEFLEEGGPSSGAPPPSEG-NH2 [Example 412] | 2.36 nM | 0.282 nM | 0.0351 nM | 467 nM | 12.5 nM | 46 nM |  |  | 
20 | H-Y[Aib]QGT[αMePhe(2-F)]TSD[4Pal]SILLDKK([γGlu-γGlu-C18 diacid])AQ[Aib]AFIE[αMeY]LEEGGPSSGAPPPSGTE-NH2 [Example 551] | 1.74 nM | 0.303 nM | 0.0173 nM | 210 nM | 1.88 nM | 38.2 nM |  |  | 
